Data on nine compounds can be found in patent publication US20080200454A1, “CARBON-LINKED TETRAHYDRO-PYRAZOLO-PYRIDINE MODULATORS OF CATHEPSIN S” (priority 2007, published 2008).

The target of the assay is Recombinant human cathepsin S (CatS) (Homo sapiens, UniProt P25774). As to the kind of experiment: Recombinant human cathepsin S (CatS) inhibition assay, fluorogenic substrate Z-Valine-Valine-Arginine-AMC.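 Also: Baculovirus-expressed CatS in pH 5.0 sodium acetate buffer with DTT and NaCl, fluorescence read each minute over 20 min, inhibition derived from rate slope.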
Recombinant human cathepsin S (CatS), sequence (P25774 115-331): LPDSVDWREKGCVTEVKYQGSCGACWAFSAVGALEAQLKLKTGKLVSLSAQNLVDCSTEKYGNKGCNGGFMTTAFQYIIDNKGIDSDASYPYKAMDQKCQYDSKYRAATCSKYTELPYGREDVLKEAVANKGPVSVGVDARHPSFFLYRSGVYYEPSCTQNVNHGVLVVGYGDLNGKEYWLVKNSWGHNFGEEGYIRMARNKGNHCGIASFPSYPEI

Like-named read-outs stand apart in the source and are kept apart here.

For orientation: IC50 means the concentration needed to halve the response being measured.

For the compound `C[C@H]1COCCN1CCCn1nc(-c2ccc(Cl)c(C#Cc3ccc(CN(C)Cc4ccc(Cl)cc4)cc3)c2)c2c1CCN(S(C)(=O)=O)C2` [Example 500, 1-[4-({2-Chloro-5-[1-{3-[(3S)-3-methylmorpholin-4-yl]propyl}-5-(methylsulfonyl)-4,5,6,7-tetrahydro-1H-pyrazolo[4,3-c]pyridin-3-yl]phenyl}ethynyl)phenyl]-N-[(4-chlorophenyl)methyl]-N-methylmethanamine], the IC50 (CatS IC50) was 580 nM.
In the case of `CS(=O)(=O)N1CCc2c(c(-c3ccc(Cl)c(CCCNS(=O)(=O)c4cccc(C#N)c4)c3)nn2CCCN2CCC(N3CCCC3=O)CC2)C1` [Example 98, N-{3-[2-Chloro-5-(5-methanesulfonyl-1-{3-[4-(2-oxo-pyrrolidin-1-yl)-piperidin-1-yl]-propyl}-4,5,6,7-tetrahydro-1H-pyrazolo[4,3-c]pyridin-3-yl)-phenyl]-propyl}-3-cyano-benzenesulfonamide], the IC50 worked out at 1410 nM.
As for `C[C@H]1COCCN1CCCn1nc(-c2ccc(Cl)c(C#Cc3ccc(Cl)c(CNCCO)c3)c2)c2c1CCN(S(C)(=O)=O)C2` [Example 293, 2-({[2-Chloro-5-({2-chloro-5-[1-{3-[(3S)-3-methylmorpholin-4-yl]propyl}-5-(methylsulfonyl)-4,5,6,7-tetrahydro-1H-pyrazolo[4,3-c]pyridin-3-yl]phenyl}ethynyl)phenyl]methyl}amino)ethanol], where the note is “CatS IC50”, the IC50 was 50 nM.
For the compound `CS(=O)(=O)N1CCc2c(c(-c3ccc(Cl)c(C#Cc4ccc5c(c4)CNCC5)c3)nn2CC(O)CN2CCCCC2)C1` (stereo not drawn) [Example 134, 1-{3-[4-Chloro-3-(1,2,3,4-tetrahydro-isoquinolin-7-ylethynyl)-phenyl]-5-methanesulfonyl-4,5,6,7-tetrahydro-pyrazolo[4,3-c]pyridin-1-yl}-3-piperidin-1-yl-propan-2-ol], the IC50 was 180 nM.
On to `C[C@H]1COCCN1CCCn1nc(-c2ccc(Cl)c(C#Cc3ccc(Cl)c(C(=O)N4CCCC4)c3)c2)c2c1CCN(C(=O)C(N)=O)C2` [Example 573, 2-[3-(4-Chloro-3-{[4-chloro-3-(pyrrolidin-1-ylcarbonyl)phenyl]ethynyl}phenyl)-1-{3-[(3S)-3-methylmorpholin-4-yl]propyl}-1,4,6,7-tetrahydro-5H-pyrazolo[4,3-c]pyridin-5-yl]-2-oxoacetamide], for which, for the setting “CatS IC50”, the IC50 turned out to be 190 nM.
For `C[C@H]1COCCN1CCCn1nc(-c2ccc(Cl)c(C#Cc3ccc(Cl)c(C(=O)NCCCNC(=O)OC(C)(C)C)c3)c2)c2c1CCN(C(=O)C(N)=O)C2` [Example 577, tert-Butyl (3-{[(5-{[5-(5-[amino(oxo)acetyl]-1-{3-[(3S)-3-methylmorpholin-4-yl]propyl}-4,5,6,7-tetrahydro-1H-pyrazolo[4,3-c]pyridin-3-yl)-2-chlorophenyl]ethynyl}-2-chlorophenyl)carbonyl]amino}propyl)carbamate], under “CatS IC50”, the IC50 was determined as 20 nM.
On to `CS(=O)(=O)N1CCc2c(c(-c3ccc(Cl)c(C#Cc4ccncc4)c3)nn2CCCN2CCOCC2)C1` [Example 20, 3-(4-Chloro-3-pyridin-4-ylethynyl-phenyl)-5-methanesulfonyl-1-(3-morpholin-4-yl-propyl)-4,5,6,7-tetrahydro-1H-pyrazolo[4,3-c]pyridine], for which, where the note is “CatS IC50, Table 2, average of results obtained”, the IC50 is 540 nM.
For the compound `C[C@H]1COCCN1CCCn1nc(-c2ccc(Cl)c(C#Cc3ccc4c(c3)CN(C3CC3)CC4)c2)c2c1CCN(C(N)=O)C2` [Example 282, 3-{4-Chloro-3-[(2-cyclopropyl-1,2,3,4-tetrahydroisoquinolin-7-yl)ethynyl]phenyl}-1-{3-[(3S)-3-methylmorpholin-4-yl]propyl}-1,4,6,7-tetrahydro-5H-pyrazolo[4,3-c]pyridine-5-carboxamide], the IC50 is 150 nM.
Turning to `CNCCCNC(=O)c1ccc(C#Cc2cc(-c3nn(CCCN4CCSCC4)c4c3CN(C(N)=O)CC4)ccc2Cl)cc1` [Example 612, 3-{4-Chloro-3-[(4-{[3-(methylamino)propyl]carbamoyl}phenyl)ethynyl]phenyl}-1-(3-thiomorpholin-4-ylpropyl)-1,4,6,7-tetrahydro-5H-pyrazolo[4,3-c]pyridine-5-carboxamide], the IC50 (CatS IC50) turned out to be 80 nM.
